In US20230097157A1, “Bicyclic Pyridin-2-one and pyrimidin-4-one Derivatives Useful As a Factor XIa Inhibitors” (Janssen Pharmaceutica NV, priority 2021, published 2023):
Like-named read-outs stand apart in the source and are kept apart here.

How the values were obtained:
Factor XIa = Factor XIa (Homo sapiens, UniProt P03951); experiment: Factor XIa inhibition assay (FLINT) utilizing a fluorophore-quencher pair peptide substrate 5Fam-[…]-K5Tamra; format: biochemical; details: kinetic (KIN) reads, read-out: FXIa KIN Inh IC50
Method in brief: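 Compounds were tested as 11-point 3-fold dilutions from 100 nM (2% DMSO). They were preincubated 30 min with FXIa in 50 mM Tris pH 7.5, 5 mM CaCl2, then 15 μM fluorophore-quencher peptide was added. Cleavage was followed at 485/520 nm over 30 min, and IC50 was derived by 4-parameter logistic fit.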

human plasma kallikrein = human plasma kallikrein (Homo sapiens, UniProt P03952); experiment: Kallikrein inhibition assay (FLINT) utilizing a quenched AMC peptide substrate Z-Gly-Pro-Arg-AMC; format: biochemical; details: kinetic (KIN) reads, read-out: Kallikrein KIN Inh IC50
Method in brief: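 IC50 from a 4-parameter logistic fit of % inhibition from 11 concentrations (3-fold, top 1 μM, 2% DMSO). Compound pre-incubated 30 min with 2 nM enzyme in Tris pH 7.5, NaCl, CaCl2, BSA, CHAPS, then 50 μM AMC peptide substrate added. Fluorescence (340/440 nm) followed every 5 min for 30 min at room temperature.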

Chain of human plasma kallikrein (P03952 391-638 limits assumed): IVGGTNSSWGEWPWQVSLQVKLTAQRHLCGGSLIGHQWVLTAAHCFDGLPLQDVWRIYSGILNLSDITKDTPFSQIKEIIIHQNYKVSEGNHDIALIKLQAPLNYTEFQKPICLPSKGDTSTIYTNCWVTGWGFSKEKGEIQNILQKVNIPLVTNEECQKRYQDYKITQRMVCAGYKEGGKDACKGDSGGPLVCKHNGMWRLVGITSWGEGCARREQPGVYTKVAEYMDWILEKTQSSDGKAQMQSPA
Chain of human plasma kallikrein (P03952 20-390 partner limits assumed): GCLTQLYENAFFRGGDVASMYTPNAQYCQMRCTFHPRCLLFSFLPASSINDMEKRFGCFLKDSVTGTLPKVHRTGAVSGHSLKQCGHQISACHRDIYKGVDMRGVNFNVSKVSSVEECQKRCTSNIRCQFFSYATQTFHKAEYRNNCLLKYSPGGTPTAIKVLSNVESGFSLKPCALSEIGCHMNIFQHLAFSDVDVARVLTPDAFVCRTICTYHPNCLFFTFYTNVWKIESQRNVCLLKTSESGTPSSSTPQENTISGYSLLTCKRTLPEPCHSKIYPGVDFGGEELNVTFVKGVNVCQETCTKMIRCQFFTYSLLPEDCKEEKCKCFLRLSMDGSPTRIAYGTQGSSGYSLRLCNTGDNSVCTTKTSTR
Chain of Factor XIa (P03951 388-625 limits assumed): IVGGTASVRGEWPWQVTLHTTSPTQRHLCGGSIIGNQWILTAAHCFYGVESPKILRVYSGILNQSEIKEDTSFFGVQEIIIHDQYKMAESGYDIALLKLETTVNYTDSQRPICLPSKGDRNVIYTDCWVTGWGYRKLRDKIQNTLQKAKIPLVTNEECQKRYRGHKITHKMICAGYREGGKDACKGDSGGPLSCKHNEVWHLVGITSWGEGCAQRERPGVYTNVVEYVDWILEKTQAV
Chain of Factor XIa (P03951 19-387 partner limits assumed): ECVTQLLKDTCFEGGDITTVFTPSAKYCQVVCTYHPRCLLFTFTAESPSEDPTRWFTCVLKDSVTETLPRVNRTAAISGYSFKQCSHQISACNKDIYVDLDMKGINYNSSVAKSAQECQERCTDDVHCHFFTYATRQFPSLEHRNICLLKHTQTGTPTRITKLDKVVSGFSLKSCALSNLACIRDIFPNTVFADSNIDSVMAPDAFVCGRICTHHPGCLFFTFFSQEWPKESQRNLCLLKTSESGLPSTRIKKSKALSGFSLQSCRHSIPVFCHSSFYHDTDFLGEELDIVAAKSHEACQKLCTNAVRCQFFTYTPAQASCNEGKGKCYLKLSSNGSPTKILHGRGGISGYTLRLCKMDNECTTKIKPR

Row | SMILES | IC50 (Factor XIa; values in nM) | IC50 (human plasma kallikrein; unit μM) | IC50 (Factor XIa; unit μM) | IC50 (human plasma kallikrein; values in nM)
1 | C[C@@H]1C[C@@H](c2ncc(-c3ccc(N)nc3F)[nH]2)n2c1nc(-c1c(-n3cnnn3)ccc(Cl)c1F)cc2=O (relative stereo) [Example 137, (6S*,8R*)-6-(5-(6-Amino-2-fluoropyridin-3-yl)-1H-imidazol-2-yl)-2-(3-chloro-2-fluoro-6-(1H-tetrazol-1-yl)phenyl)-8-methyl-7,8-dihydropyrrolo[1,2-a]pyrimidin-4(6H)-one] | 104 nM | 7.2 µM | – | –
2 | C[C@@H]1C[C@@H](c2ncc(-c3ccnn3C)[nH]2)n2c1nc(-c1c(-n3cnnn3)ccc(Cl)c1F)cc2=O (relative stereo) [Example 145, (6S*,8R*)-2-(3-Chloro-2-fluoro-6-(1H-tetrazol-1-yl)phenyl)-8-methyl-6-(5-(1-methyl-1H-pyrazol-5-yl)-1H-imidazol-2-yl)-7,8-dihydropyrrolo[1,2-a]pyrimidin-4(6H)-one] | – | > 10 µM | > 10000 nM | –
3 | C[C@@H]1C[C@@H](c2ncc(-c3ccnc(C(F)(F)F)c3)[nH]2)n2c1nc(-c1c(-n3cnnn3)ccc(Cl)c1F)cc2=O (relative stereo) [Example 147, (6S*,8R*)-2-(3-Chloro-2-fluoro-6-(1H-tetrazol-1-yl)phenyl)-8-methyl-6-(5-(2-(trifluoromethyl)pyridin-4-yl)-1H-imidazol-2-yl)-7,8-dihydropyrrolo[1,2-a]pyrimidin-4(6H)-one] | – | > 10 µM | > 10000 nM | –
4 | C[C@H]1C[C@@H](c2ncc(-c3ccnc(C(F)(F)F)c3)[nH]2)n2c1nc(-c1c(-n3cnnn3)ccc(Cl)c1F)cc2=O (relative stereo) [Example 148, (6S*,8S*)-2-(3-Chloro-2-fluoro-6-(1H-tetrazol-1-yl)phenyl)-8-methyl-6-(5-(2-(trifluoromethyl)pyridin-4-yl)-1H-imidazol-2-yl)-7,8-dihydropyrrolo[1,2-a]pyrimidin-4(6H)-one] | 47.6 nM | – | – | 0.094 µM
5 | Nc1ccc(-c2cnc([C@@H]3CC4(CC4)c4cc(-c5cc(Cl)ccc5-n5cnnn5)cc(=O)n43)[nH]2)c(F)n1 (single isomer, unassigned) [Example 4] | > 100 nM | > 1 µM | – | –
6 | CC(O)c1nccc(-c2cnc([C@@H]3CC4(CC4)c4cc(-c5c(-n6cnnn6)ccc(Cl)c5F)cc(=O)n43)[nH]2)c1F (single isomer, unassigned) [Example 5, (3'S)-7′-(3-Chloro-2-fluoro-6-(1H-tetrazol-1-yl)phenyl)-3′-(5-(3-fluoro-2-(1-hydroxyethyl)pyridin-4-yl)-1H-imidazol-2-yl)-2′,3′-dihydro-5′H-spiro[cyclopropane-1,1′-indolizin]-5′-one] | > 100 nM | > 1 µM | – | –
7 | O=c1cc(-c2c(-n3cnnn3)ccc(Cl)c2F)cc2n1[C@@H](c1ncc(-c3ccnc(CO)c3F)[nH]1)CC21CC1 (single isomer, unassigned) [Example 8] | > 100 nM | > 1 µM | – | –
8 | C[C@H]1C[C@@H](c2ncc(-c3ccc(N)nc3F)[nH]2)n2c1cc(-c1cc(Cl)ccc1-n1cnnn1)cc2=O (single isomer, unassigned) [Example 36] | – | > 10 µM | 1500 nM | –
9 | [2H]C([2H])([2H])OC(=O)Nc1ccc(-c2cnc(C3CC4(CC4)c4nc(-c5c(-n6cnnn6)ccc(Cl)c5F)cc(=O)n43)[nH]2)cc1 (single isomer, unassigned) [Example 71, Methyl-d3 (R*)-(4-(2-(2′-(3-Chloro-2-fluoro-6-(1H-tetrazol-1-yl)phenyl)-4′-oxo-6′,7′-dihydro-4′H-spiro[cyclopropane-1,8′-pyrrolo[1,2-a]pyrimidin]-6′-yl)-1H-imidazol-5-yl)phenyl)carbamate] | > 100 nM | – | – | 0.736 µM
10 | O=c1cc(-c2c(-n3cnnn3)ccc(Cl)c2F)nc2n1[C@H](c1nc(-c3ccnc(OCC(O)C(F)(F)F)c3F)c[nH]1)CC21CC1 (single isomer, unassigned) [Example 73, (S)-2′-(3-chloro-2-fluoro-6-(1H-tetrazol-1-yl)phenyl)-6′-(4-(3-fluoro-2-((S*)-3,3,3-trifluoro-2-hydroxypropoxy)pyridin-4-yl)-1H-imidazol-2-yl)-6′,7′-dihydro-4′H-spiro[cyclopropane-1,8′-pyrrolo[1,2-a]pyrimidin]-4′-one] | 22.1 nM | – | – | 0.0548 µM
11 | O=c1cc(-c2c(-n3cnnn3)ccc(Cl)c2F)nc2n1[C@H](c1nc(-c3ccnc(OCC(O)C(F)(F)F)c3F)c[nH]1)CC21CC1 (single isomer, unassigned) [Example 74, (S)-2′-(3-chloro-2-fluoro-6-(1H-tetrazol-1-yl)phenyl)-6′-(4-(3-fluoro-2-((R*)-3,3,3-trifluoro-2-hydroxypropoxy)pyridin-4-yl)-1H-imidazol-2-yl)-6′,7′-dihydro-4′H-spiro[cyclopropane-1,8′-pyrrolo[1,2-a]pyrimidin]-4′-one] | 32.1 nM | – | – | 0.0277 µM
12 | CC1CC(c2ncc(-c3ccnc(CO)c3F)[nH]2)n2c1nc(-c1c(-n3cnnn3)ccc(Cl)c1F)cc2=O (single isomer, unassigned) [Example 78, (6R*)-2-(3-Chloro-2-fluoro-6-(1H-tetrazol-1-yl)phenyl)-6-(5-(3-fluoro-2-(hydroxymethyl)pyridin-4-yl)-1H-imidazol-2-yl)-8-methyl-7,8-dihydropyrrolo[1,2-a]pyrimidin-4(6H)-one] | > 100 nM | – | – | 0.463 µM

Now from value to compound:

Row | IC50 (Factor XIa; values in nM) | IC50 (human plasma kallikrein; unit μM) | IC50 (Factor XIa; unit μM) | IC50 (human plasma kallikrein; values in nM) | SMILES
13 | 0.3 nM | – | – | 0.014 µM | CO[C@@H]1C[C@H](c2ncc(-c3ccc(N)nc3F)[nH]2)n2c1cc(-c1c(-n3cnnn3)ccc(Cl)c1F)cc2=O (relative stereo) [Example 151, (1*R,3*R)-3-(5-(6-Amino-2-fluoropyridin-3-yl)-1H-imidazol-2-yl)-7-(3-chloro-2-fluoro-6-(1H-tetrazol-1-yl)phenyl)-1-methoxy-2,3-dihydroindolizin-5(1H)-one]
14 | 1.2 nM | – | – | 0.1 µM | Nc1ccc(-c2cnc(C3CCCc4cc(-c5c(-n6cnnn6)ccc(Cl)c5F)cc(=O)n43)[nH]2)c(F)n1 (single isomer, unassigned) [Cmpd (III), (*S)-6-(5-(6-amino-2-fluoropyridin-3-yl)-1H-imidazol-2-yl)-2-(3-chloro-2-fluoro-6-(1H-tetrazol-1-yl)phenyl)-6,7,8,9-tetrahydro-4H-quinolizin-4-one]
15 | 17 nM | – | – | 0.0728 µM | CC(O)c1nccc(-c2cnc([C@H]3CC4(CC4)c4cc(-c5c(-n6cnnn6)ccc(Cl)c5F)cc(=O)n43)[nH]2)c1F (single isomer, unassigned) [Example 6, (3′R)-7′-(3-Chloro-2-fluoro-6-(1H-tetrazol-1-yl)phenyl)-3′-(5-(3-fluoro-2-(1-hydroxyethyl)pyridin-4-yl)-1H-imidazol-2-yl)-2′,3′-dihydro-5′H-spiro[cyclopropane-1,1′-indolizin]-5′-one]
16 | 6.9 nM | – | – | ~0.0214 µM | C[C@H]1C[C@@H](c2ncc(-c3cc4c(cn3)NC(=O)CC4)[nH]2)n2c1cc(-c1c(-n3cnnn3)ccc(Cl)c1F)cc2=O (single isomer, unassigned) [Example 9, 6-(2-((1*S,3*S)-7-(3-Chloro-2-fluoro-6-(1H-tetrazol-1-yl)phenyl)-1-methyl-5-oxo-1,2,3,5-tetrahydroindolizin-3-yl)-1H-imidazol-5-yl)-3,4-dihydro-1,7-naphthyridin-2(1H)-one]
17 | 7.3 nM | – | – | 0.0429 µM | CC(C)(O)COc1nccc(-c2cnc(C3CC4(CC4)c4nc(-c5c(-n6cnnn6)ccc(Cl)c5F)cc(=O)n43)[nH]2)c1F (single isomer, unassigned) [Example 70, (R*)-2′-(3-Chloro-2-fluoro-6-(1H-tetrazol-1-yl)phenyl)-6′-(5-(3-fluoro-2-(2-hydroxy-2-methylpropoxy)pyridin-4-yl)-1H-imidazol-2-yl)-6′,7′-dihydro-4′H-spiro[cyclopropane-1,8′-pyrrolo[1,2-a]pyrimidin]-4′-one]
18 | 0.6 nM | – | – | 0.0033 µM | [2H]C([2H])([2H])OC(=O)Nc1ccc(-c2cnc(C3CC4(CC4)c4nc(-c5c(-n6cnnn6)ccc(Cl)c5F)cc(=O)n43)[nH]2)cc1 (single isomer, unassigned) [Example 72, Methyl-d3 (S*)-(4-(2-(2′-(3-Chloro-2-fluoro-6-(1H-tetrazol-1-yl)phenyl)-4′-oxo-6′,7′-dihydro-4′H-spiro[cyclopropane-1,8′-pyrrolo[1,2-a]pyrimidin]-6′-yl)-1H-imidazol-5-yl)phenyl)carbamate]
19 | 19.6 nM | – | – | 0.167 µM | CC1CC(c2ncc(-c3ccnc(CO)c3F)[nH]2)n2c1nc(-c1c(-n3cnnn3)ccc(Cl)c1F)cc2=O (single isomer, unassigned) [Example 77, (6S*)-2-(3-Chloro-2-fluoro-6-(1H-tetrazol-1-yl)phenyl)-6-(5-(3-fluoro-2-(hydroxymethyl)pyridin-4-yl)-1H-imidazol-2-yl)-8-methyl-7,8-dihydropyrrolo[1,2-a]pyrimidin-4(6H)-one]
20 | 5.1 nM | – | – | ~0.0459 µM | C[C@H]1C[C@@H](c2ncc(-c3ncc(N)nc3F)[nH]2)n2c1nc(-c1c(-n3cnnn3)ccc(Cl)c1F)cc2=O (single isomer, unassigned) [Example 89, (6*S,8S)-6-(5-(5-Amino-3-fluoropyrazin-2-yl)-1H-imidazol-2-yl)-2-(3-chloro-2-fluoro-6-(1H-tetrazol-1-yl)phenyl)-8-methyl-7,8-dihydropyrrolo[1,2-a]pyrimidin-4(6H)-one]
